Source: patent US6730679B1, “Pharmaceutical formulations” (SmithKline Beecham Corporation, priority 1996, dated 2004)

Experiment: Aqueous solubility of the compound of formula (I)
Format: physicochemical
Source text: Current formulations of HIV protease inhibitors for oral administration are in powder or tablet form. However, HIV protease inhibitors in these oral formulations are generally poorly soluble and, therefore, poorly bioavailable for the above reasons. […] In addition, the compound of formula (I) is poorly wetted. Therefore, formulating the compound using standard formulary techniques is difficult and leads in any event to a formulation with low bioavailability.

variation of aqueous solubility with pH (FIG. 1): does not significantly vary with pH | solubility (water (aqueous), room temperature): 95 µg/mL
Compound: CC(C)CN(C[C@@H](O)[C@H](Cc1ccccc1)NC(=O)O[C@H]1CCOC1)S(=O)(=O)c1ccc(N)cc1 (relative stereo) [compound of formula (I), 3S-[3R*(1R*, 2S*)]-[3-[[(4-aminophenyl)sulphonyl](2-methylpropyl)-amino]-2-hydroxy-1-phenylmethyl)propyl]carbamic acid, tetrahydro-3-furanyl ester]
